Test results published in US20250302832A1, “PYRAZINE DERIVATIVES AND USES THEREOF” (FOGHORN THERAPEUTICS INC., priority 2022, published 2025).

How the values were obtained:
HiBit-BRM fusion protein = molecular target: T1, HiBit-BRM fusion protein (Homo sapiens, UniProt P51531); test: HiBiT-BRM cell-based degradation assay (Nano-Glo HiBiT lytic detection, 24 h); settings: HeLa cell line expressing HiBiT-BRM; for DC50: read-out: BRM HiBit Degradation IC50
T1 construct: expressed in transfected cells
Description: (§1) Procedure: A stable HeLa cell line expressing HiBiT-BRM was generated. On day 0, 5000 cells were seeded in 40 μL of media into each well of 384-well cell culture plates. On day 1, cells were treated with 120 nL DMSO or 120 nL of 3-fold serially DMSO-diluted compounds (10 points in duplicate with 30 μM as final top dose). Subsequently plates were incubated for 24 h in a standard tissue culture incubator and equilibrated at room temperature for 15 minutes. Nano-GB HiBiT Lytic Detection System (Promega N3050) reagent was freshly prepared and 20 ul was added to each well. Upon addition of this LgBit-containing reagent, the HiBiT and LgBiT proteins associate to form the luminescent NanoBiT luciferase. The plates were shaken for 10 minutes at room temperature and the bioluminescence read using an EnVision plate reader (PerkinElmer).
(§2) The degradation % was calculated using the following formula: % degradation=100%−100%×(Lumsample−LuMLC)/(LuMHC−LuMLC). DMSO treated cells are employed as High Control (HC) and 2 μM of a known BRM/BRG1 degrader standard treated cells are employed as Low Control (LC).

[1] = molecular target: T2, HiBit-BRG1 fusion protein (Homo sapiens, UniProt P51532); test: HiBiT-BRG1 cell-based degradation assay (Nano-Glo HiBiT lytic detection, 24 h); settings: HeLa cell line expressing HiBit-BRG1 and LgBit; for Dmax: read-out: BRG1 HiBit Degradation Maximum (%); for DC50: read-out: BRMG1 HiBit Degradation IC50
T2 construct: expressed in transfected cells
Description: as §1, with “On day 1, cells were treated with 120 nL DMSO or 120 nL of 3-fold serially DMSO-diluted compounds (10 points in duplicate with 30 μM as final top dose).” left out
For measurement of BRG1 degradation, a stable HeLa cell line expressing HiBit-BRG1 and LgBit was generated. The same protocol as above was then followed.
as §2

T1 sequence (P51531 whole entry, the tested form may be a part): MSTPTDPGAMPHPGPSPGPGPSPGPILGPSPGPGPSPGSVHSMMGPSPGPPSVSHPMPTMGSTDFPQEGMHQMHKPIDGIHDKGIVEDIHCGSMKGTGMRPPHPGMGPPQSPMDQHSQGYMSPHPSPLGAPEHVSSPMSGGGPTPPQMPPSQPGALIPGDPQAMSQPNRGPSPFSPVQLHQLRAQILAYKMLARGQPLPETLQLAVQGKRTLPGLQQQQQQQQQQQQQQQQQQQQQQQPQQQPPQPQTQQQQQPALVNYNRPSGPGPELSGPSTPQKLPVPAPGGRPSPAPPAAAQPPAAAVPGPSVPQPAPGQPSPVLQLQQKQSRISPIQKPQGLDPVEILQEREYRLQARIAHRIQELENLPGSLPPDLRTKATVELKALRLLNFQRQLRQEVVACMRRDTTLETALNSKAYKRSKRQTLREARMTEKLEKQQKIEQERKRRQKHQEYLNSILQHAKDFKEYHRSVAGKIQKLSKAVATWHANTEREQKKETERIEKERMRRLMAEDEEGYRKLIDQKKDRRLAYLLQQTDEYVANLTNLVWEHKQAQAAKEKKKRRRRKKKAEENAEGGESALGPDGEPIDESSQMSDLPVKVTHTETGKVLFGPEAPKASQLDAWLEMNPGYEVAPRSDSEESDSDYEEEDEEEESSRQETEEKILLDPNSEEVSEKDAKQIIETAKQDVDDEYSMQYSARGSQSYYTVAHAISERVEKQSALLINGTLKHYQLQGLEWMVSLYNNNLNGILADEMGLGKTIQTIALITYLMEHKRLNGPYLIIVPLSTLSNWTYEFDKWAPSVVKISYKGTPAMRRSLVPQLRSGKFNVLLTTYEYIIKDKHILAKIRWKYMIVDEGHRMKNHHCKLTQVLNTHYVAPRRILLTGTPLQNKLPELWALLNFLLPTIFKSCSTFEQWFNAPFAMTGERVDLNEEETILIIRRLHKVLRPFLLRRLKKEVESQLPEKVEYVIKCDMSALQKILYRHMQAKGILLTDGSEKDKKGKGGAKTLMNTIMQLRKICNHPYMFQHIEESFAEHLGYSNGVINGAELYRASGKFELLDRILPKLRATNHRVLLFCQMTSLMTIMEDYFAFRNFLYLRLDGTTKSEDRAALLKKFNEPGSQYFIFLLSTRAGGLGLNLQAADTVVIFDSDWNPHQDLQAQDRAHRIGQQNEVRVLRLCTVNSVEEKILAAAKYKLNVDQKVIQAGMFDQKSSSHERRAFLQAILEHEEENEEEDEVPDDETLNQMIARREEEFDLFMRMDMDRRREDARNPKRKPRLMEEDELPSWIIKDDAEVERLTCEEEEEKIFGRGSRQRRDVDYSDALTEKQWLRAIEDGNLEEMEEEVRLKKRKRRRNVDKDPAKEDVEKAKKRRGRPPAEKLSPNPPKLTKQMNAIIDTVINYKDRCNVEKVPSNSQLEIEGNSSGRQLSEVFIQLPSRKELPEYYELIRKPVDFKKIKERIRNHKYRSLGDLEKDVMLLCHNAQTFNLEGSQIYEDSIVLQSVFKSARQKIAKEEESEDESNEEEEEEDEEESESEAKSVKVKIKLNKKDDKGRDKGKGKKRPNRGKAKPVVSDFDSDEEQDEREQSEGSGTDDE
T2 sequence (P51532 whole entry, the tested form may be a part): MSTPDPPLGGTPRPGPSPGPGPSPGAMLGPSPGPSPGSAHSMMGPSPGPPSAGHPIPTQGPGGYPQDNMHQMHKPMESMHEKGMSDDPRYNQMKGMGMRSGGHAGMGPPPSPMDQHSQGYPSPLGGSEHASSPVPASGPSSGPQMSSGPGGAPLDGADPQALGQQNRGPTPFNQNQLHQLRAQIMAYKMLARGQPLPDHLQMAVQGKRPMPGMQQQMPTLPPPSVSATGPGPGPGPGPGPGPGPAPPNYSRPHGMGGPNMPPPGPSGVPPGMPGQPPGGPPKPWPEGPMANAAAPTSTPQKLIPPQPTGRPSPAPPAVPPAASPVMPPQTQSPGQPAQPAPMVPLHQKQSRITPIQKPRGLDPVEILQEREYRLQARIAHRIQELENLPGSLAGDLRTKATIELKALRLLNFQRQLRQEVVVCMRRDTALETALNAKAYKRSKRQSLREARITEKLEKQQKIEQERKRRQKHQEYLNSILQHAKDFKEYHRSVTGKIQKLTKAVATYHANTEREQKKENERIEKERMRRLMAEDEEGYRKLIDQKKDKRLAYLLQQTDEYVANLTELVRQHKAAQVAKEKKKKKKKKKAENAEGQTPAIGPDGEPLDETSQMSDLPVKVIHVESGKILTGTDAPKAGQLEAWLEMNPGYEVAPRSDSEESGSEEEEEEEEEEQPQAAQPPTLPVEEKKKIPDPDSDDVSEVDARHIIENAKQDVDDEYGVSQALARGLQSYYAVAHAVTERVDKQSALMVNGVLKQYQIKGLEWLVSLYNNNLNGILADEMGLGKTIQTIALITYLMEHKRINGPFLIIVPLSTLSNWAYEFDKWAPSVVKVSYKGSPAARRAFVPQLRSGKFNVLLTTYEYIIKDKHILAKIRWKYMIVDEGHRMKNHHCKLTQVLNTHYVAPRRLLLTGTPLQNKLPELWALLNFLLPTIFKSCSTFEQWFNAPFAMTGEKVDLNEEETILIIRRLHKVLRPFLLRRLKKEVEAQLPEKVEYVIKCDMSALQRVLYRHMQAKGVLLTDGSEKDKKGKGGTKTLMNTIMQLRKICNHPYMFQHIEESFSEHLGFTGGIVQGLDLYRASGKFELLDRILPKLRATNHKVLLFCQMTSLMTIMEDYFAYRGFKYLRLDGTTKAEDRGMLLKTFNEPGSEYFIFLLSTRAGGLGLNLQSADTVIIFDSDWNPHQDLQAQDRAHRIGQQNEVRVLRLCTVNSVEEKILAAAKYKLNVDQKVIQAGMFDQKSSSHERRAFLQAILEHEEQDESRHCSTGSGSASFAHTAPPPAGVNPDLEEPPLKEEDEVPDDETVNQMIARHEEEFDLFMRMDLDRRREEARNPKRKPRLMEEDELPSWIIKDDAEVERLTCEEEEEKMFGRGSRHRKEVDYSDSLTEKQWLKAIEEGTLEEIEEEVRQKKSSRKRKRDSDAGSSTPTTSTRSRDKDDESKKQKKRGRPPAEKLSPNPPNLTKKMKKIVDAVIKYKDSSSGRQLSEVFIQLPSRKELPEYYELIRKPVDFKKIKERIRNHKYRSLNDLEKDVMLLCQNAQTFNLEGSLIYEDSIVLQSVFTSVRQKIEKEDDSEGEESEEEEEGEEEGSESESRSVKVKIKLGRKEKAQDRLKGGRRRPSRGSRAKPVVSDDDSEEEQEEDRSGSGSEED

SMILES	DC50 (HiBit-BRM fusion protein) [nM]	Dmax [1] [%]	DC50 [1] [nM]	BRM HiBit Degradation Maximum (%) (HiBit-BRM fusion protein)
C#Cc1ccc(CNC(=O)[C@@H]2C[C@@H](O)CN2C(=O)C(c2cc(N3CC4(CC(c5cc6nnc(-c7ccccc7O)cc6n5C5CCC5)C4)C3)no2)C(C)C)c(OC)c1 (stereo partly drawn) [Compound 58, (2S,4R)-1-(2-(3-(6-(5-cyclobutyl-3-(2-hydroxyphenyl)-5H-pyrrolo[3,2-c]pyridazin-6-yl)-2-azaspiro[3.3]heptan-2-yl)isoxazol-5-yl)-3-methylbutanoyl)-N-(4-ethynyl-2-methoxybenzyl)-4-hydroxypyrrolidine-2-carboxamide]	< 10	< 50		A (“A” indicates maximum degradation ≥75%)
Cc1ncsc1-c1ccc([C@H](C)NC(=O)[C@@H]2C[C@@H](O)CN2C(=O)[C@@H](c2cc(OCCN3CC(c4cc5nnc(-c6ccccc6O)cc5n4C(F)F)C3)no2)C(C)C)cc1 [Compound 14, (2S,4R)-1-((R)-2-(3-(2-(3-(5-(difluoromethyl)-3-(2-hydroxyphenyl)-5H-pyrrolo[3,2-c]pyridazin-6-yl)azetidin-1-yl)ethoxy)isoxazol-5-yl)-3-methylbutanoyl)-4-hydroxy-N—((S)-1-(4-(4-methylthiazol-5-yl)phenyl)ethyl)pyrrolidine-2-carboxamide]	> 10	> 50	> 10	A (“A” indicates maximum degradation ≥75%)
Cc1ncsc1-c1ccc([C@H](C)NC(=O)[C@@H]2C[C@@H](O)CN2C(=O)[C@@H](c2cc(-c3cnc(N4CC5(CC(c6cc7nnc(-c8ccccc8O)cc7n6C6CCC6)C5)C4)nc3)no2)C(C)C)cc1 [Compound 62, (2S,4R)-1-((R)-2-(3-(2-(6-(5-cyclobutyl-3-(2-hydroxyphenyl)-5H-pyrrolo[3,2-c]pyridazin-6-yl)-2-azaspiro[3.3]heptan-2-yl)pyrimidin-5-yl)isoxazol-5-yl)-3-methylbutanoyl)-4-hydroxy-N-((S)-1-(4-(4-methylthiazol-5-yl)phenyl)ethyl)pyrrolidine-2-carboxamide]	< 10	> 50	> 10	A (“A” indicates maximum degradation ≥75%)
Cc1ncsc1-c1ccc([C@H](C)NC(=O)[C@@H]2C[C@@H](O)CN2C(=O)[C@@H](c2cc(-c3cnc(N4CCC(c5cc6nnc(-c7ccccc7O)cc6n5C(C)C)CC4)nc3)no2)C(C)C)cc1 [Compound 45]	< 10	> 75	< 10	A (“A” indicates maximum degradation ≥75%)
Cc1ncsc1-c1ccc([C@H](C)NC(=O)[C@@H]2C[C@@H](O)CN2C(=O)[C@@H](c2cc(-c3cnc(N4CCC(c5cc6nnc(-c7ccccc7O)cc6n5C5(C)CC5)CC4)nc3)no2)C(C)C)cc1 [Compound 43]	< 10	< 50		A (“A” indicates maximum degradation ≥75%)
Cc1ncsc1-c1ccc([C@H](C)NC(=O)[C@@H]2C[C@@H](O)CN2C(=O)[C@@H](c2cc(-c3cnc(N4CC5(CC(c6cc7nnc(-c8ccccc8O)cc7n6C67CC(C6)C7)C5)C4)nc3)no2)C(C)C)cc1 [Compound 64, (2S,4R)-1-((R)-2-(3-(2-(6-(5-(bicyclo[1.1.1]pentan-1-yl)-3-(2-hydroxyphenyl)-5H-pyrrolo[3,2-c]pyridazin-6-yl)-2-azaspiro[3.3]heptan-2-yl)pyrimidin-5-yl)isoxazol-5-yl)-3-methylbutanoyl)-4-hydroxy-N-((S)-1-(4-(4-methylthiazol-5-yl)phenyl)ethyl)pyrrolidine-2-carboxamide]	< 10	< 50		A (“A” indicates maximum degradation ≥75%)
Cc1ncsc1-c1ccc([C@H](C)NC(=O)[C@@H]2C[C@@H](O)CN2C(=O)[C@@H](c2cc(N3CCC(C(=O)N4CC(c5cc6nnc(-c7ccccc7O)cc6n5C)C4)CC3)no2)C(C)C)cc1 [Compound 13, (2S,4R)-4-hydroxy-1-[(2R)-2-[3-(4-{3-[3-(2-hydroxyphenyl)-5-methylpyrrolo[3,2-c]pyridazin-6-yl]azetidine-1-carbonyl}piperidin-1-yl)-1,2-oxazol-5-yl]-3-methylbutanoyl]-N-[(1S)-1-[4-(4-methyl-1,3-thiazol-5-yl)phenyl]ethyl]pyrrolidine-2-carboxamide]	< 10	> 50	> 100	A (“A” indicates maximum degradation ≥75%)
C#Cc1ccc(CNC(=O)[C@@H]2C[C@@H](O)CN2C(=O)C(c2cc(N3CC4(CC(c5cc6nnc(-c7ccccc7O)cc6n5C5CCC5)C4)C3)no2)C(C)C)c(OCCCOC)c1 (stereo partly drawn) [Compound 52, (2S,4R)-1-(2-(3-(6-(5-cyclobutyl-3-(2-hydroxyphenyl)-5H-pyrrolo[3,2-c]pyridazin-6-yl)-2-azaspiro[3.3]heptan-2-yl)isoxazol-5-yl)-3-methylbutanoyl)-N-(4-ethynyl-2-(3-methoxypropoxy)benzyl)-4-hydroxypyrrolidine-2-carboxamide]	< 10	< 50		A (“A” indicates maximum degradation ≥75%)

Now from value to compound, other results behind:

DC50 (HiBit-BRM fusion protein) [nM]	Dmax [1] [%]	DC50 [1] [nM]	SMILES	BRM HiBit Degradation Maximum (%) (HiBit-BRM fusion protein)
> 10	< 50		Cc1ncsc1-c1ccc([C@H](C)NC(=O)[C@@H]2C[C@@H](O)CN2C(=O)[C@@H](c2cc(N3CC[C@H](c4cc5nnc(-c6ccccc6O)cc5n4C4CCC4)C3)no2)C(C)C)cc1 [Compound 79, (2S,4R)-1-((R)-2-(3-((S)-3-(5-cyclobutyl-3-(2-hydroxyphenyl)-5H-pyrrolo[3,2-c]pyridazin-6-yl)pyrrolidin-1-yl)isoxazol-5-yl)-3-methylbutanoyl)-4-hydroxy-N-((S)-1-(4-(4-methylthiazol-5-yl)phenyl)ethyl)pyrrolidine-2-carboxamide]	A (“A” indicates maximum degradation ≥75%)
> 10	< 50		CC(C)C(C(=O)N1C[C@H](O)C[C@H]1C(=O)NC1CCCC1)c1cc(N2CC3(CC(c4cc5nnc(-c6ccccc6O)cc5n4C4CCC4)C3)C2)no1 (stereo partly drawn) [Compound 119, (2S,4R)-1-(2-(3-(6-(5-cyclobutyl-3-(2-hydroxyphenyl)-5H-pyrrolo[3,2-c]pyridazin-6-yl)-2-azaspiro[3.3]heptan-2-yl)isoxazol-5-yl)-3-methylbutanoyl)-N-cyclopentyl-4-hydroxypyrrolidine-2-carboxamide]	A (“A” indicates maximum degradation ≥75%)
> 10	< 50		Cc1ncsc1-c1ccc([C@H](C)NC(=O)[C@@H]2C[C@@H](O)CN2C(=O)[C@@H](c2cc(-c3cnc(N4CC[C@H](c5cc6nnc(-c7cc(F)cc(F)c7O)cc6n5C5CC5)C4)nc3)no2)C(C)C)cc1 [Compound 108, (2S,4R)-1-((R)-2-(3-(2-((S)-3-(5-cyclopropyl-3-(3,5-difluoro-2-hydroxyphenyl)-5H-pyrrolo[3,2-c]pyridazin-6-yl)pyrrolidin-1-yl)pyrimidin-5-yl)isoxazol-5-yl)-3-methylbutanoyl)-4-hydroxy-N-((S)-1-(4-(4-methylthiazol-5-yl)phenyl)ethyl)pyrrolidine-2-carboxamide]	B (“B” indicates maximum degradation ≥50%)
< 10	< 50		Cc1ncsc1-c1ccc([C@H](C)NC(=O)[C@@H]2C[C@@H](O)CN2C(=O)[C@@H](c2cc(N3CC4(CC(c5cc6nnc(-c7ccccc7O)cc6n5C56CC(C5)C6)C4)C3)no2)C(C)C)cc1 [Compound 65, (2S,4R)-1-((R)-2-(3-(6-(5-(bicyclo[1.1.1]pentan-1-yl)-3-(2-hydroxyphenyl)-5H-pyrrolo[3,2-c]pyridazin-6-yl)-2-azaspiro[3.3]heptan-2-yl)isoxazol-5-yl)-3-methylbutanoyl)-4-hydroxy-N-((S)-1-(4-(4-methylthiazol-5-yl)phenyl)ethyl)pyrrolidine-2-carboxamide]	A (“A” indicates maximum degradation ≥75%)
< 10	< 50		Cc1ncsc1-c1ccc([C@H](C)NC(=O)[C@@H]2C[C@@H](O)CN2C(=O)[C@@H](c2cc(N3CCC4(CC3)CC(c3cc5nnc(-c6ccccc6O)cc5n3C3CC3)C4)no2)C(C)C)cc1 [Compound 117, (2S,4R)-1-((R)-2-(3-(2-(5-cyclopropyl-3-(2-hydroxyphenyl)-5H-pyrrolo[3,2-c]pyridazin-6-yl)-7-azaspiro[3.5]nonan-7-yl)isoxazol-5-yl)-3-methylbutanoyl)-4-hydroxy-N-((S)-1-(4-(4-methylthiazol-5-yl)phenyl)ethyl)pyrrolidine-2-carboxamide]	A (“A” indicates maximum degradation ≥75%)
